What was measured:
[1] = co-micronized with sugar alcohols, from entacapone, levodopa, carbidopa formulation vs not co-micronized
[2] = background description; cited from earlier work
[3] = background description; cited from earlier work; remark: listed apart in the source

Row | Change in percent drug release of entacapone [1] | Structure (SMILES) | Biopharmaceutics Classification system class [2] | Solubility in water [3]
1 | significant increase | CCN(CC)C(=O)/C(C#N)=C/c1cc(O)c(O)c([N+](=O)[O-])c1 [Entacapone, (E)-2-cyano-3-(3,4-dihydroxy-5-nitrophenyl)-N,N-diethyl-2-propenamide] | class IV | –
2 | – | N[C@@H](Cc1ccc(O)c(O)c1)C(=O)O [Levodopa, (−)-L-α-amino-β-(3,4-dihydroxybenzene) propanoic acid] | – | slightly soluble
3 | – | C[C@@](Cc1ccc(O)c(O)c1)(NN)C(=O)O [Carbidopa, (−)-L-(α-hydrazino-(α-methyl-β-(3,4-dihydroxybenzene)propanoic acid monohydrate] | – | slightly soluble

Source: patent US9089485B2, “Pharmaceutical compositions of entacapone, levodopa and carbidopa with improved bioavailability” (Wockhardt Ltd., priority 2008, dated 2015)
